Results: EPA's ToxRefDB 2

Experiments:
rat [1] = details: Subchronic oral toxicity in rodents, sprague dawley, Feed, dose end: 3 month, group: systemic, systemic / clinical chemistry / glucose / glucose + systemic / hematology / erythrocyte (rbc) count differential / erythrocyte (rbc) + …
dog [2] = details: Subchronic oral toxicity in nonrodent, beagle, Feed, dose end: 15 week, group: systemic, systemic / organ weight / liver / absolute + systemic / organ weight / liver / relative to body weight + systemic / pathology microscopic / …
rabbit = details: Prenatal developmental toxicity study, new zealand white, Oral, Gavage/Intubation, dose end: 19 GD, group: maternal
rat [3] = details: Prenatal developmental toxicity study, other, Oral, Gavage/Intubation, dose end: 15 GD
dog [4] = details: Subchronic oral toxicity in nonrodent, beagle, Feed, dose end: 6 month, group: systemic
mouse [5] = details: Carcinogenicity; cd1; Oral; Feed; dose end: 18 month; group: systemic; systemic / in life observation / body weight / body weight + systemic / in life observation / body weight / body weight gain + systemic / in…
rat [6] = details: Prenatal developmental toxicity study, sprague dawley, Oral, Gavage/Intubation, dose end: 15 GD
dog [7] = details: Subchronic oral toxicity in nonrodent, beagle, Feed, dose end: 6 month, group: systemic; remark: listed apart in the source
dog [8] = details: Chronic toxicity; beagle; Oral; Feed; dose end: 52 week; group: systemic; systemic / in life observation / body weight / body weight gain
mouse [9] = details: Carcinogenicity, b6c3f1, Oral, Gavage/Intubation, dose end: 2 year, group: systemic
mouse [10] = details: Subchronic oral toxicity in rodents, b6c3f1, Gavage/Intubation, dose end: 13 week, group: systemic
rat [11] = details: Combined chronic toxicity/carcinogenicity; fischer; Oral; Gavage/Intubation; dose end: 2 year; group: systemic; systemic / in life observation / mortality / mortality + systemic / pathology microscopic / lung / foreign body + systemic / pathology …
rat [12] = details: Subchronic oral toxicity in rodents, fischer, Gavage/Intubation, dose end: 13 week, group: systemic
rat [13] = details: Fertility (Segment I); wistar; Injection; Subcutaneous; group: parental; systemic / organ weight / prostate / nos
mouse [14] = details: Prenatal developmental toxicity study, other, Injection, Intraperitoneal, dose end: 15 GD
[15] = systemic / in life observation / clinical signs / tremors
[16] = systemic / in life observation / clinical signs / tremors + reproductive / reproductive performance / aborted / aborted + systemic / …
[17] = group: developmental, developmental / developmental malformation / bone / incomplete ossification + systemic / in life observation / body weight / fetal weight
[18] = group: maternal, systemic / hematology / hematocrit (hct) / hematocrit (hct) + systemic / hematology / hemoglobin (hgb) / hemoglobin (hgb) + systemic / …
[19] = systemic / in life observation / body weight / body weight gain
[20] = systemic / in life observation / body weight / body weight gain + systemic / in life observation / food consumption / food consumption
[21] = group: developmental, systemic / in life observation / body weight / fetal weight
[22] = group: maternal, reproductive / reproductive performance / implantations / implantations + systemic / in life observation / body weight / body weight gain + …
[23] = systemic / pathology microscopic / brain / corpora amylacea + systemic / pathology microscopic / adrenal gland / adenoma + systemic / …
[24] = systemic / in life observation / body weight / body weight
[25] = systemic / in life observation / body weight / body weight + systemic / in life observation / clinical signs / unsteady gait
[26] = systemic / in life observation / body weight / body weight + systemic / in life observation / clinical signs / labored respiration + …
[27] = group: developmental, developmental / developmental malformation / bone / misshapen + developmental / developmental malformation / bone / short + developmental / …
[28] = group: maternal, reproductive / reproductive performance / resorptions / resorptions

SMILES: CC(C)(C)N(NC(=O)c1ccc(Cl)cc1)C(=O)c1ccccc1 [Halofenozide]
- LEL (rat [1]): 52.7 mg/kg/day
- LOAEL (rat [1]): 52.7 mg/kg/day
- NEL (rat [1]): 5.53 mg/kg/day
- NOAEL (rat [1]): 5.53 mg/kg/day
- LEL (dog [2]): 11.5 mg/kg/day
- LOAEL (dog [2]): 11.5 mg/kg/day
- NEL (dog [2]): 4 mg/kg/day
- NOAEL (dog [2]): 4 mg/kg/day
- LEL (rabbit; [15]): 20 mg/kg/day
- LOAEL (rabbit; [15]): 20 mg/kg/day
- NEL (rabbit; [16]): 10 mg/kg/day
- NOAEL (rabbit; [16]): 10 mg/kg/day
- LEL (rat [3]; [17]): 180 mg/kg/day
- LOAEL (rat [3]; [17]): 180 mg/kg/day
- NEL (rat [3]; [17]): 30 mg/kg/day
- NOAEL (rat [3]; [17]): 30 mg/kg/day
- LEL (rat [3]; [18]): 180 mg/kg/day
- LOAEL (rat [3]; [18]): 180 mg/kg/day
- NEL (rat [3]; [18]): 30 mg/kg/day
- NOAEL (rat [3]; [18]): 30 mg/kg/day

SMILES: CCc1cccc(C)c1N(C(=O)CCl)C(C)COC (configuration not stated) [Metolachlor]
- LOAEL (dog [4]; [19]): 29.4 mg/kg/day
- LEL (dog [4]; [20]): 29.4 mg/kg/day
- NEL (dog [4]; [20]): 8.77 mg/kg/day
- NOAEL (dog [4]; [20]): 8.77 mg/kg/day
- LEL (mouse [5]): 450 mg/kg/day
- LOAEL (mouse [5]): 450 mg/kg/day
- NEL (mouse [5]): 150 mg/kg/day
- NOAEL (mouse [5]): 150 mg/kg/day
- LEL (rat [6]; [21]): 1000 mg/kg/day
- LOAEL (rat [6]; [21]): 1000 mg/kg/day
- NEL (rat [6]; [21]): 300 mg/kg/day
- NOAEL (rat [6]; [21]): 300 mg/kg/day
- LOAEL (rat [6]; [22]): 1000 mg/kg/day
- NEL (rat [6]; [22]): 100 mg/kg/day
- NOAEL (rat [6]; [22]): 300 mg/kg/day
- LEL (rat [6]; group: maternal, systemic / in life observation / clinical signs / salivation): 300 mg/kg/day
- LOAEL (dog [7]; [19]): 29.4 mg/kg/day
- LEL (dog [7]; [20]): 29.4 mg/kg/day
- NEL (dog [7]; [20]): 8.77 mg/kg/day
- NOAEL (dog [7]; [20]): 8.77 mg/kg/day
- LEL (dog [8]): 33 mg/kg/day
- LOAEL (dog [8]): 33 mg/kg/day
- NEL (dog [8]): 9.7 mg/kg/day
- NOAEL (dog [8]): 9.7 mg/kg/day

SMILES: OCc1ccccc1 [Benzyl alcohol]
- NEL (mouse [9]; systemic / pathology microscopic / brain / corpora amylacea): 100 mg/kg/day
- LEL (mouse [9]; [23]): 200 mg/kg/day
- LOAEL (mouse [9]; [23]): > 200 mg/kg/day
- NOAEL (mouse [9]; [23]): ≥ 200 mg/kg/day
- LEL (mouse [10]; [24]): 400 mg/kg/day
- LOAEL (mouse [10]; [25]): 800 mg/kg/day
- NEL (mouse [10]; [25]): 200 mg/kg/day
- NOAEL (mouse [10]; [25]): 400 mg/kg/day
- LEL (rat [11]): 200 mg/kg/day
- LOAEL (rat [11]): > 400 mg/kg/day
- NEL (rat [11]): < 200 mg/kg/day
- NOAEL (rat [11]): ≥ 400 mg/kg/day
- LEL (rat [12]; [24]): 200 mg/kg/day
- LOAEL (rat [12]; [24]): 400 mg/kg/day
- NEL (rat [12]; [26]): 100 mg/kg/day
- NOAEL (rat [12]; [26]): 200 mg/kg/day

SMILES: NC(=O)N1c2ccccc2C=Cc2ccccc21 [Carbamazepine]
- LEL (rat [13]): 20 mg/kg/day
- LOAEL (rat [13]): > 20 mg/kg/day
- NEL (rat [13]): < 20 mg/kg/day
- NOAEL (rat [13]): ≥ 20 mg/kg/day
- LEL (mouse [14]; [27]): 15 mg/kg/day
- LOAEL (mouse [14]; [27]): > 30 mg/kg/day
- NEL (mouse [14]; [27]): < 15 mg/kg/day
- NOAEL (mouse [14]; [27]): ≥ 30 mg/kg/day
- LEL (mouse [14]; [28]): 15 mg/kg/day
- LOAEL (mouse [14]; [28]): > 30 mg/kg/day
- NEL (mouse [14]; [28]): < 15 mg/kg/day
- NOAEL (mouse [14]; [28]): ≥ 30 mg/kg/day
